In ChEMBL document CHEMBL3232856, “Endomorphin analogues with mixed μ-opioid (MOP) receptor agonism/δ-opioid (DOP) receptor antagonism and lacking β-arrestin2 recruitment activity” (Bioorg Med Chem, 2014):
Calls of active or inactive are those of the source. The rule behind the calls is not given here. Residues, ends and D or L forms follow the SMILES beside them.

Columns and labels:
[1] = target: Mu-type opioid receptor (Rattus norvegicus, UniProt P33535); test: Displacement of [3H]DAMGO from mu opioid receptor in Sprague-Dawley rat brain P2 synaptosomal membranes
[2] = target: Delta-type opioid receptor (Rattus norvegicus, UniProt P33533); test: Displacement of [3H]deltorphin-2 from delta opioid receptor in Sprague-Dawley rat brain P2 synaptosomal membranes
[3] = target: Mu-type opioid receptor (Cavia porcellus, UniProt P97266); test: Agonist activity at mu opioid receptor in guinea pig ileum assessed as inhibition of electrically-stimulated muscle contraction; assay type: tissue-based
[4] = target: Delta-type opioid receptor (Mus musculus, UniProt P32300); test: Agonist activity at delta opioid receptor in mouse vas deferens assessed as inhibition of electrically-stimulated muscle contraction; assay type: tissue-based
[5] = target: T1, Mu-type opioid receptor (Homo sapiens, UniProt P35372); test: Agonist activity at GFP-fused mu opioid receptor (unknown origin) expressed in HEK293 cells assessed as recruitment of beta-arrestin-2 after 10 mins by BRET assay; assay type: cell-based
[6] = target: T2, Delta-type opioid receptor (Homo sapiens, UniProt P41143); test: Agonist activity at GFP-fused delta opioid receptor (unknown origin) expressed in HEK293 cells assessed as recruitment of beta-arrestin-2 after 10 mins by BRET assay; assay type: functional, cell-based
[7] = target: T3, Kappa-type opioid receptor (Homo sapiens, UniProt P41145); test: Agonist activity at GFP-fused kappa opioid receptor (unknown origin) expressed in HEK293 cells assessed as recruitment of beta-arrestin-2 after 10 mins by BRET assay; assay type: cell-based
[8] = target: T1, Mu-type opioid receptor; details: HEK293, at 1 µM
[9] = target: T2, Delta-type opioid receptor; details: HEK293, at 0.1 to 10 µM
[10] = target: T2, Delta-type opioid receptor; details: HEK293, at 100 µM
[11] = target: T3, Kappa-type opioid receptor; details: HEK293, at 0.1 to 10 µM
[12] = target: T2, Delta-type opioid receptor; details: HEK293, at 100 µM; remark: listed apart in the source
[13] = target: T2, Delta-type opioid receptor; test: Agonist activity at delta opioid receptor (unknown origin) expressed in HEK293 cells assessed as inhibition of forskolin-induced cAMP accumulation after 30 mins; assay type: functional, cell-based
[14] = target: T1, Mu-type opioid receptor; test: Potency index, ratio of DAMGO EC50 to compound EC50 for mu opioid receptor (unknown origin) by beta-arrestin-2 recruitment assay
[15] = target: T1, Mu-type opioid receptor; test: Intrinsic efficacy at GFP-fused mu opioid receptor (unknown origin) expressed in HEK293 cells assessed as recruitment of beta-arrestin-2 after 10 mins by BRET assay relative to untreated control; assay type: cell-based; details: hek293, 10 min
[16] = target: T1, Mu-type opioid receptor; details: HEK293, at 100 µM
[17] = target: T1, Mu-type opioid receptor; test: Displacement of [3H]DAMGO from mu opioid receptor (unknown origin)
[18] = target: T2, Delta-type opioid receptor; test: Displacement of [3H]DPDPE from delta opioid receptor (unknown origin)
[19] = Displacement of [3H]DPDPE from delta opioid receptor in guinea pig brain membranes after 1 hr; assay type: cell membranes, Cavia porcellus, Membrane

T2 sequence (P41143 whole entry, the tested form may be a part): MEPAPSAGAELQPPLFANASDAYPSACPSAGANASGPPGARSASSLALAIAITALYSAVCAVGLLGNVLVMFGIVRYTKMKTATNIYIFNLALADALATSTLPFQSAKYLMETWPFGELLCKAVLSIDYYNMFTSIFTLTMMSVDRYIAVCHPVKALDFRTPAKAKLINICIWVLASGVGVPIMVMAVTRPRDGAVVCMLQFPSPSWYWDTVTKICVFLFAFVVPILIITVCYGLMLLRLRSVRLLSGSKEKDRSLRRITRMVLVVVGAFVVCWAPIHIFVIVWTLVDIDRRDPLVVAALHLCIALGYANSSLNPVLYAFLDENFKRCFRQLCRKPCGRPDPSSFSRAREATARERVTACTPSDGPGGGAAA
T1 sequence (P35372 whole entry, the tested form may be a part): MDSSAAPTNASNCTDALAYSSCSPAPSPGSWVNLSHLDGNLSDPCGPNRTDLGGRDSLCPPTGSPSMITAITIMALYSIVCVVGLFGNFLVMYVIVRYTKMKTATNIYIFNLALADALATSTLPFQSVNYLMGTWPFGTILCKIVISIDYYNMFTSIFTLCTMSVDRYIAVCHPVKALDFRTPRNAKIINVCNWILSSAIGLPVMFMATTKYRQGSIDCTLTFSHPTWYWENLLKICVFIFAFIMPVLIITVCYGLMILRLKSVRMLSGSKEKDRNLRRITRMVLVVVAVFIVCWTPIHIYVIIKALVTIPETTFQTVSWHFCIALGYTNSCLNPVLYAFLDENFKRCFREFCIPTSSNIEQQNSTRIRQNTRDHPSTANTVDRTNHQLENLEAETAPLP
Chain of Delta-type opioid receptor (Mus musculus, UniProt P32300) (P32300 whole entry, the tested form may be a part): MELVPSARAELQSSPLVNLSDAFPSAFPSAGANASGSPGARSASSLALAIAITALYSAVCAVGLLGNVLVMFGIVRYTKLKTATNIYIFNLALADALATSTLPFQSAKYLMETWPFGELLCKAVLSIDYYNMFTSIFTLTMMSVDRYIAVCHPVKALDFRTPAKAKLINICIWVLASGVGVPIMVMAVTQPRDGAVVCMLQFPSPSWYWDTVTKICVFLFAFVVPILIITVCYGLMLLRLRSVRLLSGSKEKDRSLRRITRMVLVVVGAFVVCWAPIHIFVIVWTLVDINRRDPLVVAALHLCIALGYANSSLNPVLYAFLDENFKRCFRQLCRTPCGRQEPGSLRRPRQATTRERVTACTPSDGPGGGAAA
Chain of Mu-type opioid receptor (Cavia porcellus, UniProt P97266) (P97266 whole entry): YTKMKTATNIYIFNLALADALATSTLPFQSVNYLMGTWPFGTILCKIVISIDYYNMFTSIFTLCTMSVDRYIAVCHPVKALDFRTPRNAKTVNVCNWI
Chain of Delta-type opioid receptor (Rattus norvegicus, UniProt P33533) (P33533 whole entry): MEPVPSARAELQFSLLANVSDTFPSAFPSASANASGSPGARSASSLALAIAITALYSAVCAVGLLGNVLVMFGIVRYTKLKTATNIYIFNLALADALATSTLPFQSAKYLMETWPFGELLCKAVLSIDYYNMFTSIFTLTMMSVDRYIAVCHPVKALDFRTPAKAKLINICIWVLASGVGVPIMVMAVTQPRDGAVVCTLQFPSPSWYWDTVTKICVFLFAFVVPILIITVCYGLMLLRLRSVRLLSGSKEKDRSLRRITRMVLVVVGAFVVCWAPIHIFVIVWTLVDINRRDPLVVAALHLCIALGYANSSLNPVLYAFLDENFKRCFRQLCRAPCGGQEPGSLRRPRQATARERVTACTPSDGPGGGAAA
T3 sequence (P41145 whole entry, the tested form may be a part): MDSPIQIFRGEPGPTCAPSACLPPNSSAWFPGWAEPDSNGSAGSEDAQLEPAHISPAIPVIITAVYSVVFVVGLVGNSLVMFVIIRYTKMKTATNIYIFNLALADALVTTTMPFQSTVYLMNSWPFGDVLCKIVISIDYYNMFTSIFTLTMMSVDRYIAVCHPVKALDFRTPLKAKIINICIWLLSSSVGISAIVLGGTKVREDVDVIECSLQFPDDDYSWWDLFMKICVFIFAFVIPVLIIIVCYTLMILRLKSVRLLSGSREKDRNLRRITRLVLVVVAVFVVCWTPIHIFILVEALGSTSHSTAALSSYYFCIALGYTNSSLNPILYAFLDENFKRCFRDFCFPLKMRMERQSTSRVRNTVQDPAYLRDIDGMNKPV
Chain of Mu-type opioid receptor (Rattus norvegicus, UniProt P33535) (P33535 whole entry): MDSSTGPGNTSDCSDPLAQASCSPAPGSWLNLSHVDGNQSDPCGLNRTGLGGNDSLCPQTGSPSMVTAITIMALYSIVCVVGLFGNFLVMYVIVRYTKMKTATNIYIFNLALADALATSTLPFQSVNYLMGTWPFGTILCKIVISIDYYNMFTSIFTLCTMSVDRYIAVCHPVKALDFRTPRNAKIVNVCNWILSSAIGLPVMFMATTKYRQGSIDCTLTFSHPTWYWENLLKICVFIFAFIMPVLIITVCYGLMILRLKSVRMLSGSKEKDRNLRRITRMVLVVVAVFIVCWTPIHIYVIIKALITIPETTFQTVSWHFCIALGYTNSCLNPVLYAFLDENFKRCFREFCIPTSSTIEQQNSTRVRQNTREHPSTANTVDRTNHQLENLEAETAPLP

Row | SMILES | Ki [1] | Ki [2] | IC50 [3] | IC50 [4] | EC50 ([5]; hek293) | EC50 [6] | EC50 [7] | inhibition [8] | inhibition [9] | inhibition [10] | inhibition [11] | inhibition [12] | IC50 [13] | EC50 ([5]; read-out: EC50) | Ratio EC50 [14] | Ratio [15] | inhibition [16] | Ki [17] | Ki [18] | Ki [19]
1 | Cc1cc(O)cc(C)c1C[C@H](N)C(=O)N1CCC[C@H]1C(=O)N[C@@H](Cc1ccc2ccccc2c1)C(N)=O (HELM PEPTIDE1{[Cc1cc(O)cc(C)c1C[C@H](N)C(=O)[*:2]].P.[O=C([C@H](Cc1ccc2ccccc2c1)N[*:1])[*:2]].[am]}$$$$V2.0) | 16.9 nM | 68.3 nM | > 10000 nM | > 10 µM | Not Active | Not Active | Not Active | Active | inactive | inactive | inactive | inactive |  |  |  |  |  |  |  | 
2 | Cc1cc(O)cc(C)c1C[C@H](N)C(=O)N1CCC[C@H]1C(=O)N[C@@H](Cc1c[nH]c2ccccc12)C(N)=O (HELM PEPTIDE1{[Cc1cc(O)cc(C)c1C[C@H](N)C(=O)[*:2]].P.W.[am]}$$$$V2.0) | 0.21 nM | 66.4 nM | 10.4 nM | > 10 µM |  | Not Active | Not Active | Active | Active | inactive | Active | inactive | < 100 nM | 6.3 nM | 60 | 0.6 | Active |  |  | 
3 | Cc1cc(C)c(C[C@H](NC(=O)[C@H](Cc2c(C)cc(C)cc2C)NC(=O)[C@@H]2CCCN2C(=O)[C@@H](N)Cc2c(C)cc(O)cc2C)C(N)=O)c(C)c1 | 0.47 nM | 1.63 nM | 9.28 nM | > 10 µM | Not Active | Not Active | Not Active | Active | inactive | Active | inactive | Active |  |  |  |  |  |  |  | 
4 | Cc1cc(C)c(C[C@H](NC(=O)[C@H](Cc2ccccc2)NC(=O)[C@@H]2CCCN2C(=O)[C@@H](N)Cc2c(C)cc(O)cc2C)C(N)=O)c(C)c1 | 0.37 nM | 24.5 nM | 66.7 nM | > 10 µM | Not Active | Not Active | Not Active | Active | inactive | inactive | inactive | inactive |  |  |  |  | inactive |  |  | 
5 | Cc1cc(O)cc(C)c1C[C@H](N)C(=O)N1CCC[C@H]1C(=O)N[C@@H](Cc1ccccc1)C(=O)N[C@@H](Cc1cccc2ccccc12)C(N)=O (HELM PEPTIDE1{[Cc1cc(O)cc(C)c1C[C@H](N)C(=O)[*:2]].P.F.[O=C([C@H](Cc1cccc2ccccc12)N[*:1])[*:2]].[am]}$$$$V2.0) | 0.28 nM | 51.7 nM | 14.3 nM | > 10 µM | Not Active | Not Active | Not Active | Active | inactive | inactive | inactive | inactive |  |  |  |  |  |  |  | 
6 | Cc1cc(O)cc(C)c1C[C@H](N)C(=O)N1CCC[C@H]1C(=O)N[C@@H](Cc1cccc2ccccc12)C(N)=O (HELM PEPTIDE1{[Cc1cc(O)cc(C)c1C[C@H](N)C(=O)[*:2]].P.[O=C([C@H](Cc1cccc2ccccc12)N[*:1])[*:2]].[am]}$$$$V2.0) | 0.7 nM | 121 nM | 4.63 nM | 10 µM | Not Active | Not Active | Not Active |  |  |  |  |  |  |  |  |  |  |  |  | 
7 | Cc1cc(O)cc(C)c1C[C@H](NC(=O)[C@H](Cc1ccccc1)NC(=O)[C@@H]1CCCN1C(=O)[C@@H](N)Cc1c(C)cc(O)cc1C)C(N)=O (HELM PEPTIDE1{[Cc1cc(O)cc(C)c1C[C@H](N)C(=O)[*:2]].P.F.[Cc1cc(O)cc(C)c1C[C@H](N[*:1])C(=O)[*:2]].[am]}$$$$V2.0) | 0.28 nM | 87.2 nM | 44.6 nM | > 10 µM | Not Active | Not Active | Not Active | Active | inactive | inactive | inactive | inactive |  |  |  |  | inactive |  |  | 
8 | Cc1cccc(C)c1C[C@H](NC(=O)[C@H](Cc1ccccc1)NC(=O)[C@@H]1CCCN1C(=O)[C@@H](N)Cc1c(C)cc(O)cc1C)C(N)=O | 0.31 nM | 40 nM | 249 nM | > 10 µM | Not Active | Not Active | Not Active | Active | inactive | inactive | inactive | inactive |  |  |  |  | inactive |  |  | 
9 | Oc1ccc2c3c1O[C@H]1c4oc5ccccc5c4C[C@@]4(O)[C@@H](C2)N(CC2CC2)CC[C@]314 |  |  |  |  |  |  |  |  |  | 50% |  |  |  |  |  |  |  |  |  | 
10 | Cc1cc(O)cc(C)c1C[C@H](N)C(=O)N1CCC[C@H]1C(=O)N[C@@H](Cc1ccccc1)C(N)=O (HELM PEPTIDE1{[Cc1cc(O)cc(C)c1C[C@H](N)C(=O)[*:2]].P.F.[am]}$$$$V2.0) |  |  | 2.33 nM | 0.113 µM |  |  |  |  |  |  |  |  |  |  |  |  |  | 0.12 nM | 53.2 nM | 
11 | Cc1cc(C)c(C[C@H](NC(=O)[C@@H]2CCCN2C(=O)[C@@H](N)Cc2c(C)cc(O)cc2C)C(N)=O)c(C)c1 | 0.13 nM | 13.1 nM | 2.68 nM | > 10 µM |  | Not Active | Not Active | Active | inactive | inactive | inactive | inactive |  | 18.6 nM | 20 | 0.4 |  |  |  | 
12 | CC(C)C[C@@H](NC(=O)[C@H](Cc1ccccc1)NC(=O)CNC(=O)[C@@H](C)NC(=O)[C@@H](N)Cc1ccc(O)cc1)C(=O)O [DADLE] |  |  | 13.4 nM |  |  |  |  |  |  |  |  |  |  |  |  |  |  |  |  | 0.3 nM
13 | Cc1cccc(C)c1C[C@H](NC(=O)[C@@H]1CCCN1C(=O)[C@@H](N)Cc1c(C)cc(O)cc1C)C(N)=O (HELM PEPTIDE1{[Cc1cc(O)cc(C)c1C[C@H](N)C(=O)[*:2]].P.[Cc1cccc(C)c1C[C@H](N[*:1])C(=O)[*:2]].[am]}$$$$V2.0) | 0.15 nM | 33 nM | 0.274 nM | 0.745 µM | Not Active | Not Active | Not Active |  |  |  |  |  |  |  |  |  |  |  |  | 
14 | Cc1cc(O)cc(C)c1C[C@H](N)C(=O)N1CCC[C@H]1C(=O)N[C@@H](Cc1ccccc1)C(=O)N[C@@H](Cc1ccc2ccccc2c1)C(N)=O (HELM PEPTIDE1{[Cc1cc(O)cc(C)c1C[C@H](N)C(=O)[*:2]].P.F.[O=C([C@H](Cc1ccc2ccccc2c1)N[*:1])[*:2]].[am]}$$$$V2.0) | 0.81 nM | 23.2 nM | 40.2 nM | > 10 µM | Not Active | Not Active | Not Active | Active | inactive | inactive | inactive | inactive |  |  |  |  | Active |  |  | 
15 | Cc1cc(O)cc(C)c1C[C@H](N)C(=O)N1CCC[C@H]1C(=O)N[C@@H](Cc1ccccc1)C(=O)N[C@@H](Cc1c[nH]c2ccccc12)C(N)=O (HELM PEPTIDE1{[Cc1cc(O)cc(C)c1C[C@H](N)C(=O)[*:2]].P.F.W.[am]}$$$$V2.0) | 0.34 nM | 25.4 nM | 207 nM | > 10 µM | Not Active | Not Active | Not Active | Active | inactive | inactive | inactive | inactive |  |  |  |  | inactive |  |  | 
16 | C[C@@H](NC(=O)[C@@H](N)Cc1ccc(O)cc1)C(=O)NCC(=O)N(C)[C@@H](Cc1ccccc1)C(=O)NCCO |  |  |  |  |  |  |  | Active |  |  |  |  |  |  |  |  |  |  |  | 
